Data set [1] deals with Crofton weed. The data set can be described thus: Spray on leaves and stems of three-leaf-stage Crofton weed seedlings grown in pots in a greenhouse. In kind it is in vivo. Further details: key: 4: Plant completely dead; 3: Two thirds of the plant stems and leaves dried out; 2: Half of the plant stems and leaves dried out; 1: One third of the plant stems and leaves dried out; 0: No damage at all. To be noted: 50 μg/mL spray, assessed two days later. On the procedure: Compounds 1, 2, 3, and 40 were separately dissolved in a small amount of methanol. The solutions were then diluted with distilled water to a concentration of 50 μg/mL. A mixture of methanol and water in the same ratio as the sample solution was also prepared and used as control in the experiment. The solutions were sprayed on leaves and stems of three-leaf-stage Crofton weed seedlings. All the plants were grown in pot in a greenhouse. The leaves were properly wet by the solutions for consistency and the treatment was repeated 3 times. The measurement of the plant damage was calculated by the formula: Damage Index=Σ(damage level×number of plants)×100/4/number of plants in each treatment.

The test system of data set [2] is Crofton weed. The data set can be described thus: Needle puncture test on Crofton weed with washes recovered from compound-treated soil. The data set is classed as in vivo. To be noted: after soil treatment (3 hours). As to the method:
Compounds 1, 2, 3, and 40 were dissolved in small amount of methanol and diluted with distilled water to concentration of 50 μg/mL. The solution was sprayed to the soil sample until the soil was wet but not overflows. After standing at room temperature for 3 hours, the soil sample was washed with water and methanol. The wash solution was collected and concentrated. Such process was repeated three times. The concentrated solutions were used for herbicidal activity test using the method of needle puncture on Crofton weed. Methanol water solution and pure water were used as control. The experiment for every sample was repeated six times. The spot diameters were measured with vernier caliper after the plant was kept under natural light at 25° C. for 24 hours (Table 11).

Data set [3] deals with fluorescence of chlorophyll. The data set can be described thus: Fluorescence of chlorophyll of treated Crofton weed leaves. In kind it is biochemical. The following applies: 50 μg/mL, strong light 12 hours. As to the method: (§1) Compounds 10-57 were dissolved in small amount of methanol. The solutions were then diluted with distilled water to a concentration of 50 μg/mL. A mixture of methanol and water in the same ratio as the sample solution was also prepared and used as control in the experiment. The healthy leaves of Crofton weed were washed in water for 30 minutes and then rinsed with distilled water. The clean and tissue dried leaves were placed in petri dish with the back-side of the leaves facing up. Wet filter paper was also placed in the in petri dish for moisture control. Water, methanol and chemical solutions of the analogues were applied to the back-side of each leaf. Test sample was then placed in vacuum chamber at 25° C. for 15 min followed by exposure to the strong light (400 μM m^−2 s^−1) for 12 hours. The leaf sample went through a series of test, and the Hill reaction rate, the electron transfer activity and fluorescence of chlorophyll were measured. Four leaves were used for each treatment and each test was repeated three times.

Another data set concerns photosystem II. Description: PSII oxygen evolution / electron transfer activity of treated Crofton weed leaves. The data set is classed as biochemical. To be noted: 50 μg/mL, strong light 12 hours. On the procedure:
as §1

The subject of data set [4] is Crofton weed. The data set can be described thus: Needle puncture pathogenic test on slightly wounded leaf of Crofton weed. In kind it is in vivo. To be noted: Crofton weed leaf; for Avg. diameter of the spot after 24 h / Time of disease spot to occur: analogs with formula (I) and (II); for Time of Disease spot / Average diameter of spot after 24 h: 50 μg/mL, 25° C., natural light. As to the method:
3-acetyl-5-sec-butyl-4-hydroxy-3-pyrrolin-2-one analogs were dissolved in a small amount of methanol and diluted with water to a concentration of 5-100 μg/g. A pathogenic test was conducted by placing the toxic liquid on the slightly wounded leaf of Crofton weed with a needle. The test has shown that the pathogenic capability of 3-acetyl-5-sec-butyl-4-hydroxy-3-pyrrolin-2-one analogs with respect to Crofton weed increases with the increase of concentration. The spot diameter caused on the leaf of Crofton weed after 24 hours was 2 mm at 50 μg/g.
3-acetyl-5-sec-butyl-4-hydroxy-3-pyrrolin-2-one analogue (Table 3, compounds 10-57) was dissolved in small amount of methanol. The solution was then diluted with distilled water to a concentration of 50 μg/mL. Methanol solution with same concentration and pure distilled water were used as control of the experiment. A pathogenic test was conducted by placing the toxic liquid on the slightly wounded leaf of Crofton weed with a needle. The experiment was carried out at 25° C. under the natural light and each test was repeated 6 times. It was measure the diameter of the spot after 24 h. […] The size of the side chain also has an effect on their activity.
Fourteen salts of 3-acetyl-5-sec-butyl-4-hydroxy-3-pyrrolin-2-one analogs were dissolved in small amount of methanol and diluted with distilled water to a concentration of 50 μg/mL. Methanol/water mixture was also prepared and used as control. Needle puncture method was used for the test on the small pieces of Crofton weed. Each treatment was repeated six times or more. The test samples were kept under natural light at 25° C. for 24 hours. The diameters of damaged spot of the plant leaves were measured by vernier caliper.

The test system of data set [5] is Hill reaction. Description: Hill reaction activity of treated Crofton weed leaves. The following applies: 50 μg/mL, strong light 12 hours. The data set is classed as biochemical. As to the method: as §1
Another data set relates to rat. To be noted: called moderate toxicity; cited from earlier work.
Data set [6] has as its system Hill reaction. The following applies: versus 3-(3,4-dichlorophenyl)-1,1-dimethylurea (DCMU); cited from earlier work.
The subject of data set [7] is monocotyledon weeds (such as common crabgrass and barnyardgrass) and dicotyledonous weeds including Crofton weeds. To be noted: concentration of 50 μg/mL; cited from earlier work.

As to `CCC(C)C1NC(=O)C=C1O` (stereo not shown) [Compound 3], the “Damage level” value with Crofton weed [1] was determined as 1. For the same compound, in the data set with Crofton weed [2], the “Average diameter of the spot after 24 h, H2O wash” value (shortened to “Average diameter … H2O wash”) turned out to be 0.273 ± 0.062 mm and the “Average diameter of the spot after 24 h, Methanol wash” value (“Average diameter … Methanol wash” for short) is 0.334 ± 0.082 mm. Further, the Fv/Fm in [3] was determined as 0.83. Moreover, the “PSII Activity of oxygen evolution” value in the data set on photosystem II is given as 32.14 uMO2/mgChlh. Also, in the data set on Crofton weed [4], the “Avg. diameter of the spot after 24 h” value is 2.31 ± 0.09 mm and the “Time of disease spot to occur” value amounted to 20.9 ± 1.01 h. For the same compound, in the data set on Hill reaction [5], the “Activity of Hill Reaction” value turned out to be 62.21 uMO2/mgChlh.
For the compound `CCCC(Cl)C1NC(=O)CC1=O` (stereo not shown) [Compound 2], the “Damage level” value in the data set with Crofton weed [1] is listed as 2. Moreover, in the data set with Crofton weed [2], the “Average diameter … H2O wash” value turned out to be 0.280 ± 0.030 mm and the “Average diameter … Methanol wash” value was 0.362 ± 0.012 mm. The same compound showed a Fv/Fm in data set [3] of 0.84. Besides, the “PSII Activity of oxygen evolution” value with photosystem II was 37.02 uMO2/mgChlh. Moreover, in the data set on Crofton weed [4], the “Avg. diameter of the spot after 24 h” value was found to be 2.96 ± 0.01 mm and the “Time of disease spot to occur” value came out at 22.0 ± 2.30 h. For the same compound, the “Activity of Hill Reaction” value with Hill reaction [5] stood at 69.41 uMO2/mgChlh.
For the compound `CCC(C)C1NC(=O)C(C(C)=O)=C1O` (stereo not shown) [3-acetyl-5-sec-butyl-4-hydroxy-3-pyrrolin-2-one], the toxicity to rat in the data set with rat is on record as 200 mg/kg. The “inhibition to Hill reaction compared with DCMU” value with Hill reaction [6] is “much higher than the typical photosynthetic inhibitor”. The “killing monocotyledon and dicotyledonous weeds” value in [7] is recorded as “very effective”.
Consider `CCC(C)C1NC(=O)CC1=O` (stereo not shown) [Compound 1], for which the “Damage level” value in the data set with Crofton weed [1] stood at 2. Besides, in the data set with Crofton weed [2], the “Average diameter … H2O wash” value was 0.223 ± 0.077 mm and the “Average diameter … Methanol wash” value amounted to 0.292 ± 0.041 mm. In [3], this compound had a Fv/Fm of 0.82. The “PSII Activity of oxygen evolution” value in the data set with photosystem II is given as 50.89 uMO2/mgChlh. Moreover, in the data set with Crofton weed [4], the “Avg. diameter of the spot after 24 h” value was found to be 1.97 ± 0.04 mm and the “Time of disease spot to occur” value was 22.3 ± 0.77 h. The “Activity of Hill Reaction” value in the data set with Hill reaction [5] is listed as 98.76 uMO2/mgChlh.
`CCC(C)C1NC(=O)C(NCCCCl)=C1O` (stereo not shown) [Compound 8] registered a Fv/Fm in [3] of 0.79. Besides, the “PSII Activity of oxygen evolution” value with photosystem II came out at 24.65 uMO2/mgChlh. For the same compound, in the data set with Crofton weed [4], the “Avg. diameter of the spot after 24 h” value came to 2.53 ± 0.18 mm and the “Time of disease spot to occur” value stood at 20.0 ± 1.51 h. The “Activity of Hill Reaction” value in the data set with Hill reaction [5] is 49.05 uMO2/mgChlh.
Turning to `CCC(C)C1NC(=O)C(C(=O)CCOc2ccccc2)=C1O` (stereo not shown) [Compound 47], the Fv/Fm in data set [3] is 0.82. Further, the “PSII Activity of oxygen evolution” value in the data set on photosystem II is recorded as 49.01 uMO2/mgChlh. For the same compound, in the data set with Crofton weed [4], the “Time of Disease spot” value turned out to be 21.2 ± 1.88 h and the “Average diameter of spot after 24 h” value is 2.12 ± 0.09 mm. Besides, the “Activity of Hill Reaction” value with Hill reaction [5] was found to be 67.99 uMO2/mgChlh.
Turning to `CC(=O)C1=C(O)C(CC(=O)O)NC1=O` (stereo not shown) [Compound 34], in data set [3], the Fv/Fm worked out at 0.81. In the data set with photosystem II, the “PSII Activity of oxygen evolution” value is 35.11 uMO2/mgChlh. Moreover, in the data set with Crofton weed [4], the “Time of Disease spot” value is reported as 24.0 ± 0.02 h and the “Average diameter of spot after 24 h” value is reported as 1 ± 0.86 mm. Moreover, the “Activity of Hill Reaction” value in the data set with Hill reaction [5] is 65.73 uMO2/mgChlh.
The corresponding values for `CC(=O)C1=C(O)C(C(C)C)NC1=O` (stereo not shown) [Compound 39] are 0.80, 33.79 uMO2/mgChlh, 16.5 ± 2.15 h, 4.89 ± 0.37 mm and 62.72 uMO2/mgChlh.
On the same counts, the results for `CCCC(c1ccccc1)C1NC(=O)C(C(C)=O)=C1O` (stereo not shown) [Compound 20] are 0.82, 43.40 uMO2/mgChlh, 21.1 ± 3.56 h, 1.57 ± 0.04 mm and 57.23 uMO2/mgChlh.

The values are drawn from patent US9468209B2, “Method for eradicating weeds with derivatives of 3-acetyl-5-sec-butyl-4-hydroxy-3-pyrrolin-2-one” (priority 2012, dated 2016).
